{"source": "patent US20130310371A1", "about": "(priority 2012, published 2013)", "tested_on": "rat", "assay": "animal or person", "type": "in vivo", "settings": "ip", "data": [{"smiles": "Cc1cnc(NC(=O)C2=C(O)c3ccccc3S(=O)(=O)N2C)s1", "note": "[meloxicam]", "values": [{"measurement": "ED50", "setting": "Rattus norvegicus, 3 h, read-out: ED50 (95% CI), applied alone", "value": 141, "unit": "mg/kg"}, {"measurement": "analgesic effect in words", "setting": "rat, in vivo", "value": "dose-dependent analgesic effect"}]}]}
